pEC50: −log10 of the molar value. A value given as a limit tells only on which side of the number the result lay.

From ChEMBL document CHEMBL1157936, “Synthesis of 7-benzyl-5-(piperidin-1-yl)-6,7,8,9-tetrahydro-3H-pyrazolo[3,4-c][2,7]naphthyridin-1-ylamine and its analogs as bombesin receptor subtype-3 agonists” (Bioorg Med Chem Lett, 2010) come the findings set out here.

Format in all cases: functional, cell-based
Test [1] addresses T1, Bombesin receptor subtype-3 (Rattus norvegicus) (UniProt Q8K418).
T1 sequence (whole entry): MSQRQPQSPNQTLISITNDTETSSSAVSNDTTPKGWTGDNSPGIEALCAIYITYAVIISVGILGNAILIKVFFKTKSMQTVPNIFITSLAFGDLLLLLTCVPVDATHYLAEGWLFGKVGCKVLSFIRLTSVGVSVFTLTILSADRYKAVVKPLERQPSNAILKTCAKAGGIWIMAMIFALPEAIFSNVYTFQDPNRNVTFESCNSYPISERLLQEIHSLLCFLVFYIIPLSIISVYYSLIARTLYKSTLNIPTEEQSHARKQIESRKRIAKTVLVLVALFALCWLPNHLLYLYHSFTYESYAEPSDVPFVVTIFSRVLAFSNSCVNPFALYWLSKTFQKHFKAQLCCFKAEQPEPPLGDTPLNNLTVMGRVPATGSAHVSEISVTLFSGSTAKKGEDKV
The experiment in a line: Agonist activity at rat BRS3 expressed in HEK293AEQ cells after 10 mins by aequorin bioluminescence assay relative to dY-peptide. Set-up: concentration or dose not given beside the values.

Test [2] deals with T2, Bombesin receptor subtype-3 (Homo sapiens) (UniProt P32247).
T2 sequence (whole entry): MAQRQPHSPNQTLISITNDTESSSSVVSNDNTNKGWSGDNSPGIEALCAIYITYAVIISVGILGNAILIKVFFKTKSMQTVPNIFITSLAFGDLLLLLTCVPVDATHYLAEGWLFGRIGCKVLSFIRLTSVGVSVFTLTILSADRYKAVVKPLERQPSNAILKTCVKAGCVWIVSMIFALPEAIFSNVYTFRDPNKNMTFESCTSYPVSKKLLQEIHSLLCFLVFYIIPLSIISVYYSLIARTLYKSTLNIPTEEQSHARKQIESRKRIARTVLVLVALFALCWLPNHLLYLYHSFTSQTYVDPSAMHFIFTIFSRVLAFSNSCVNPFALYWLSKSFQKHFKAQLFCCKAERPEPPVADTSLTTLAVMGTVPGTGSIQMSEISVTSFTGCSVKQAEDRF
The experiment in a line: Agonist activity at human BRS3 expressed in HEK293AEQ cells after 10 mins by aequorin bioluminescence assay relative to dY-peptide.

Test [3] deals with T3, Bombesin receptor subtype-3 (Rattus norvegicus, UniProt Q8K418).
T3 sequence (Q8K418 whole entry): T1 sequence (whole entry)
The experiment in a line: Agonist activity at rat BRS3 expressed in HEK293AEQ cells after 10 mins by aequorin bioluminescence assay.

Test [4] addresses T4, Bombesin receptor subtype-3 (Homo sapiens, UniProt P32247).
T4 sequence (P32247 whole entry): T2 sequence (whole entry)
The experiment in a line: Agonist activity at human BRS3 expressed in HEK293AEQ cells after 10 mins by aequorin bioluminescence assay.

In the case of `Nc1n[nH]c2nc(N3CCCCC3)c3c(c12)CCN(CC1CCCCC1)C3`, the Activity in test [1] is 49%; in test [2], 12%. For the same compound, the pEC50 in test [3] and in test [4] was 5.00 each time.

`Nc1n[nH]c2nc(N3CCCCCC3)c3c(c12)CCN(Cc1ccccc1)C3`: the Activity in test [1] was 100%; in test [2], 9%. For the same compound, the results for the pEC50 in test [3] and in test [4] were 5.84 and 5.00, respectively.

Take `Nc1n[nH]c2nc(N3CCCCC3)c3c(c12)CCN(Cc1ccc(F)cc1)C3`: the Activity in test [1] worked out at 64%; in test [2], 1.7%. Besides, the results for the negative-log EC50 (pEC50) in test [3] and in test [4] were 5.41 and 5.00, respectively.

Consider `CC(C)CN1CCc2c(c(N3CCCCC3)nc3[nH]nc(N)c23)C1`, for which the Activity turned out to be 61% in test [1] and 10% in test [2]. The pEC50 in test [3] and in test [4] was 5.00 throughout.

As for `Nc1n[nH]c2nc(N3CCCCC3)c3c(c12)CCN(Cc1ccccc1Cl)C3`, the Activity in test [1] is 121%; in test [2], 67%. In addition, the figures for the negative-log EC50 (pEC50) in test [3] and in test [4] were 6.47 and 5.25, respectively.

For `Nc1n[nH]c2nc(N3CCCCCCC3)c3c(c12)CCN(Cc1ccccc1)C3`, the Activity in test [1] was determined as 51%; in test [2], 3.7%. The pEC50 in test [3] and in test [4] was 5.00 in each case.

For `CCNc1n[nH]c2nc(N3CCCCC3)c3c(c12)CCN(Cc1ccccc1)C3`, the Activity in test [1] came to 105%; in test [2] it was 53%. In addition, the negative logarithm of the EC50 (pEC50) is 6.33 in test [3] and 5.00 in test [4].

As to `CC(C)(C)CNc1n[nH]c2nc(N3CCCCC3)c3c(c12)CCN(Cc1ccccc1)C3`, the Activity in test [1] amounted to 94%; in test [2] it was 29%. The negative logarithm of the EC50 (pEC50) in test [3] was 6.17; in test [4], 5.38.

Regarding `Nc1n[nH]c2nc(N3CCCCC3)c3c(c12)CCN(Cc1ccccn1)C3`, the Activity in test [1] turned out to be 94%; in test [2], 46%. Also, the figures for the pEC50 in test [3] and in test [4] were 6.46 and 5.17, respectively.

In the case of `Nc1n[nH]c2nc(N3CCCCC3)c3c(c12)CCNC3`, the values for the Activity in test [1] and in test [2] were 15% and 0.3%, respectively. The pEC50 in test [3] and in test [4] was < 5.00 each time.

Regarding `COc1ccc(CN2CCc3c(c(N4CCCCC4)nc4[nH]nc(N)c34)C2)cc1`, the Activity was 8% in test [1] and 0.55% in test [2]. In addition, the negative-log EC50 (pEC50) in test [3] and in test [4] was 5.00 each time.

In the case of `CC(C)Nc1nc2[nH]nc(N)c2c2c1CN(Cc1ccccc1)CC2`, the results for the Activity in test [1] and in test [2] were 55% and 1.8%, respectively. Also, the pEC50 in test [3] is 5.12; in test [4] it was 5.00.

For `CCC(=O)Nc1n[nH]c2nc(N3CCCCC3)c3c(c12)CCN(Cc1ccccc1)C3`, the Activity in test [1] is 103%; in test [2], 19%. Moreover, the values for the pEC50 in test [3] and in test [4] were 6.91 and 5.46, respectively.

With `CC(=O)n1nc(N)c2c3c(c(N4CCCCC4)nc21)CN(Cc1ccccc1)CC3`, the Activity in test [1] was 108%; in test [2] it was 20%. In addition, the pEC50 in test [3] was 6.12; in test [4], 5.00.

In the case of `CN(C)c1nc2[nH]nc(N)c2c2c1CN(Cc1ccccc1)CC2`, the Activity stood at 59% in test [1] and 0.9% in test [2]. The figures for the negative logarithm of the EC50 (pEC50) in test [3] and in test [4] were 5.05 and 5.00, respectively.

Take `CC(=O)Nc1n[nH]c2nc(N3CCCCC3)c3c(c12)CCN(Cc1ccccc1)C3`: the Activity stood at 94% in test [1] and 31% in test [2]. The results for the pEC50 in test [3] and in test [4] were 6.89 and 5.50, respectively.

On to `Nc1n[nH]c2nc(N3CCCCC3)c3c(c12)CCN(Cc1cccc(C(F)(F)F)c1)C3`, for which the figures for the Activity in test [1] and in test [2] were 38% and 0.3%, respectively. Also, the negative logarithm of the EC50 (pEC50) in test [3] and in test [4] was 5.00 in each case.

Turning to `Nc1n[nH]c2nc(Nc3ccccc3)c3c(c12)CCN(Cc1ccccc1)C3`, the Activity in test [1] was determined as 60%; in test [2], 1.5%. The negative logarithm of the EC50 (pEC50) in test [3] and in test [4] was 5.00 in each case.

Regarding `Nc1n[nH]c2nc(N3CCCC3)c3c(c12)CCN(Cc1ccccc1)C3`, the Activity in test [1] is 99%; in test [2], 12%. For the same compound, the negative logarithm of the EC50 (pEC50) in test [3] is 6.02; in test [4], 5.00.

For `CC(C)(C)CC(=O)Nc1n[nH]c2nc(N3CCCCC3)c3c(c12)CCN(Cc1ccccc1)C3`, the Activity in test [1] worked out at 93%; in test [2] it was 52%. Further, the pEC50 in test [3] is 6.36; in test [4], 5.91.

As for `CC1CCN(c2nc3[nH]nc(N)c3c3c2CN(Cc2ccccc2)CC3)CC1`, the Activity in test [1] was found to be 96%; in test [2], 6.8%. The pEC50 is 6.07 in test [3] and 5.00 in test [4].

Consider `CC(C)(C)CN1CCc2c(c(N3CCCCC3)nc3[nH]nc(N)c23)C1`, for which the Activity was found to be 91% in test [1] and 22% in test [2]. For the same compound, the negative-log EC50 (pEC50) was 5.98 in test [3] and 5.00 in test [4].

As to `Nc1n[nH]c2nc(NC3CCCCC3)c3c(c12)CCN(Cc1ccccc1)C3`, the figures for the Activity in test [1] and in test [2] were 50% and 1%, respectively. Moreover, the pEC50 in test [3] and in test [4] was 5.00 in each case.

Consider `O=C(Nc1n[nH]c2nc(N3CCCCC3)c3c(c12)CCN(Cc1ccccc1)C3)C1CCCC1`, for which the Activity in test [1] turned out to be 99%; in test [2], 61%. Also, the values for the pEC50 in test [3] and in test [4] were 6.38 and 6.15, respectively.

On to `Nc1n[nH]c2nc(N3CCNCC3)c3c(c12)CCN(Cc1ccccc1)C3`, for which the Activity in test [1] is 31%; in test [2], 0.1%. Besides, the pEC50 in test [3] and in test [4] was 5.00 in each case.

As for `Nc1n[nH]c2nc(N3CCOCC3)c3c(c12)CCN(Cc1ccccc1)C3`, the results for the Activity in test [1] and in test [2] were 82% and 1.3%, respectively. Also, the negative logarithm of the EC50 (pEC50) in test [3] is 5.45; in test [4] it was 5.00.

With `CC(C)C(=O)Nc1n[nH]c2nc(N3CCCCC3)c3c(c12)CCN(Cc1ccccc1)C3`, the results for the Activity in test [1] and in test [2] were 102% and 37%, respectively. In addition, the negative-log EC50 (pEC50) in test [3] is 7.00; in test [4], 5.32.

`CC(C)(C)C(=O)Nc1n[nH]c2nc(N3CCCCC3)c3c(c12)CCN(Cc1ccccc1)C3`: the Activity in test [1] worked out at 105%; in test [2], 37%. Also, the values for the pEC50 in test [3] and in test [4] were 7.20 and 5.81, respectively.

Consider `Cn1nc(N)c2c3c(c(N4CCCCC4)nc21)CN(Cc1ccccc1)CC3`, for which the Activity in test [1] was determined as 73%; in test [2] it was 7.6%. The pEC50 in test [3] is 5.22; in test [4], 5.00.

Turning to `Nc1n[nH]c2nc(N3CCCCC3)c3c(c12)CCN(Cc1ccc2c(c1)OCO2)C3`, the Activity in test [1] amounted to 94%; in test [2], 1.6%. Moreover, the pEC50 in test [3] is 6.40; in test [4], 5.00.

In the case of `Nc1n[nH]c2nc(N3CCCCC3)c3c(c12)CCN(C(=O)c1ccc(F)cc1)C3`, the pEC50 in test [3] and in test [4] was < 5.00 each time.

Take `CCC(C)(C)C(=O)Nc1n[nH]c2nc(N3CCCCC3)c3c(c12)CCN(Cc1ccccc1)C3`: the Activity in test [1] is 96%; in test [2], 78%. Also, the negative logarithm of the EC50 (pEC50) was 6.67 in test [3] and 6.27 in test [4].

On to `Nc1n[nH]c2nc(N3CCC(F)CC3)c3c(c12)CCN(Cc1ccccc1)C3`, for which the Activity is 96% in test [1] and 10% in test [2]. For the same compound, the negative-log EC50 (pEC50) in test [3] was 6.32; in test [4], 5.00.

As to `Nc1n[nH]c2nc(N3CCCCC3)c3c(c12)CCN(CCc1ccccc1)C3`, the Activity in test [1] came out at 51%; in test [2] it was 3.3%. For the same compound, the values for the pEC50 in test [3] and in test [4] were 5.10 and 5.00, respectively.

On to `CN1CCN(c2nc3[nH]nc(N)c3c3c2CN(Cc2ccccc2)CC3)CC1`, for which the Activity in test [1] is 21%; in test [2] it was 0.2%. The negative logarithm of the EC50 (pEC50) in test [3] and in test [4] was 5.00 throughout.
